In patent US10751339B2, “Substituted aminopyrimidine compounds and methods of use” (SUNSHINE LAKE PHARMA CO., LTD., priority 2018, dated 2020):

How the values were obtained:
[1] = Compound stability in rat liver microsomes; format: in vitro ADME; conditions: pH 7.4
Procedure, shortened: (§1)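 Compounds (5 μM, 0.05% DMSO) incubated in duplicate with liver microsomes (0.5 mg protein/mL) and 1.0 mM NADPH in 100 mM phosphate buffer pH 7.4 at 37 °C, sampled 0–60 min. Remaining compound measured by LC/MS/MS, expressed as percent of zero-time control; denatured-microsome and dextromethorphan controls included.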

[2] = test system: SU-DHL-10; experiment: Cell proliferation assay (CTG), SU-DHL-10; format: cell-based; conditions: Homo sapiens, SU-DHL10, 72 h
Procedure: (§2) • 1. Harvest cells during the logarithmic growth period and count cell number using Count-star. • 2. Adjust cell concentrations to […] with respective culture medium. • 3. Add 90 μL cell suspensions to 96-well plates with the final cell density of 1×10^4 cells/well. (cell concentration will be adjusted according to the data base or density optimization assay.) • 4. The next day, prepare 10× solution (Top working concentration: 10 μM of test article in media with 3.16-fold serial dilutions to achieve 9 dose levels). • 5. Dispense 10 μL drug solution of both test article and reference control in each well (duplicate for each drug concentration) of the plate.

[3] = Pharmacokinetic profiles in rats; format: in vivo, rat
Procedure: The compounds disclosed herein are assessed in pharmacokinetic studies in mice, rats, dogs or monkeys. The compounds are administered as a water solution, 2% HPMC+1% TWEEN®80 in water solution, 5% DMSO+5% solutol in saline, 4% MC suspension or capsule. For the intravenous administration, the animals are generally given at 1 or 2 mg/kg dose. For the oral (p.o.) dosing, mice and rats are generally given 5 or 10 mg/kg dose, and dogs and monkeys are generally given 10 mg/kg dose. The blood samples (0.3 mL) are drawn at 0.25, 0.5, 1.0, 2.0, 3.0, 4.0, 6.0, 8.0, 12 and 24 h time points or 0.083, 0.25, 0.5, 1.0, 2.0, 4.0, 6.0, 8.0 and 24 h time points and centrifuged at 3,000 or 4000 rpm for 2 to 10 min. The plasma solutions are collected, stored at −20° C. or −70° C. until analyzed by LC/MS/MS as described above.

[4] = test system: PI3K-β (786-O); experiment: p-AKT HTRF assay, PI3K-β in 786-O cells; format: cell-based; conditions: Homo sapiens, 786-0
Procedure: Cells were incubated at 37° C. in a 5% CO2 atmosphere overnight. […] Medium was then aspirated and 50 μL/well of lysis buffer was added. Plates were shaked for 45 minutes at room temperature and then 16 ul/well of lysate was transferred to 384-well plate. 4 ul/well of premixed antibody was added to the wells. The plate was centrifuged at 1000 rpm at RT for 1 minute and then incubated for 4 hours at 22° C., and Phospho-AKT (ser473) Kit was used for detection.

[5] = test system: CCRF-SB; experiment: Cell proliferation assay (CTG), CCRF-SB; format: cell-based; conditions: Homo sapiens, 72 h
Procedure: as §2

[6] = Compound stability in human liver microsomes; format: in vitro ADME; conditions: pH 7.4
Procedure, shortened: as §1

[7] = test system: KARPAS-422; experiment: Cell proliferation assay (CTG), KARPAS-422; format: cell-based; conditions: Homo sapiens, 72 h
Procedure: as §2

[8] = target: PI3K (p110δ/p85α) (h) (Homo sapiens (Human), UniProt O00329); experiment: PI3K (p110δ/p85α) (h) non-radioactive HTRF kinase assay; format: biochemical
PI3K (p110δ/p85α) (h), sequence (O00329 whole entry, the tested form may be a part): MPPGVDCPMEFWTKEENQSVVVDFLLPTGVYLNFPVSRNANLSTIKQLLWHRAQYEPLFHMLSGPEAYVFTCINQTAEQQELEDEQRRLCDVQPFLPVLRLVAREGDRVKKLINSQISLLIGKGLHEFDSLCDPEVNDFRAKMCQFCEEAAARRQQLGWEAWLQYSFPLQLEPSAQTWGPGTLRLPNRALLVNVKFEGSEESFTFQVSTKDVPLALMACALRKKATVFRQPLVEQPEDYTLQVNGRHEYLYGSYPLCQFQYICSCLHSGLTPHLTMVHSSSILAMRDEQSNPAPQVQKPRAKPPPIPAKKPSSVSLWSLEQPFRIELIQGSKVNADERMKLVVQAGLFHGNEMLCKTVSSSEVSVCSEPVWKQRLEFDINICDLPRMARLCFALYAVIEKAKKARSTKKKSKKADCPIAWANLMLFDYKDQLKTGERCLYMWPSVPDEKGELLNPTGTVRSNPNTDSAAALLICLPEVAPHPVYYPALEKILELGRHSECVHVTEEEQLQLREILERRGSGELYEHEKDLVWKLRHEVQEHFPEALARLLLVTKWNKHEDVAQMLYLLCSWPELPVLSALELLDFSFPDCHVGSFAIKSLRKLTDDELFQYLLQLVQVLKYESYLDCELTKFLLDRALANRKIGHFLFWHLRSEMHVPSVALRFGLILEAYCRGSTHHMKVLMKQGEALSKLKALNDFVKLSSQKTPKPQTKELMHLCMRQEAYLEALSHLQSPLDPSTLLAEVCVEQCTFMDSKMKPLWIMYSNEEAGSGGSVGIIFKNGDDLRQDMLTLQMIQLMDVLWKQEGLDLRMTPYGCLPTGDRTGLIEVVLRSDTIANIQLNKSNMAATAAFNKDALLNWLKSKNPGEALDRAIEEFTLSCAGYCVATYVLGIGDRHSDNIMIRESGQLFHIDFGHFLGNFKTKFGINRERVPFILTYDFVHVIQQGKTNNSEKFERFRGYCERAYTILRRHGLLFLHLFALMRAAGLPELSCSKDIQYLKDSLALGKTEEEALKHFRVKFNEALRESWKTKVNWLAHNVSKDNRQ
PI3K (p110δ/p85α) (h), sequence (P27986 whole entry partner, the tested form may be a part): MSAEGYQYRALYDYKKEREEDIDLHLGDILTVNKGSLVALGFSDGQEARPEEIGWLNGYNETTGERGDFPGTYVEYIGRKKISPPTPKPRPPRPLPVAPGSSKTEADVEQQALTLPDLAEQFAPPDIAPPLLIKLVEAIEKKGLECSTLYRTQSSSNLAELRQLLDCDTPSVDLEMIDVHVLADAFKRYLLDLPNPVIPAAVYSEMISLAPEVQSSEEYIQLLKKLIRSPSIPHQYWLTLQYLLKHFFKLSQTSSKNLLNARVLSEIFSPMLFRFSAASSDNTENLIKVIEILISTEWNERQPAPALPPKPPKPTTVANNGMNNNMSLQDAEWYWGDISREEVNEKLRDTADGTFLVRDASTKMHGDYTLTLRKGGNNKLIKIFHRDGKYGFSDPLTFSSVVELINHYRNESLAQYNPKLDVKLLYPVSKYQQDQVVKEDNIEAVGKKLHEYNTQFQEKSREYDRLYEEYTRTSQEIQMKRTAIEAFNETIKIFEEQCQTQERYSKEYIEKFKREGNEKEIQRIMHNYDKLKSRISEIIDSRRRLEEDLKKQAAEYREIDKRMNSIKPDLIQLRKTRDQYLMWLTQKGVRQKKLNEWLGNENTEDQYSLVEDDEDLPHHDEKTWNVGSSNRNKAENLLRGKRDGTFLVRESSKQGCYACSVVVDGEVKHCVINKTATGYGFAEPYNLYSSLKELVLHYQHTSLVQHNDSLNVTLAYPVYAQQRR
Procedure: PI3K (p110δ/p85α) (h) is incubated in assay buffer containing 10 μM phosphatidylinositol-4, 5-bisphosphate and MgATP (concentration as required). The reaction is initiated by the addition of the MgATP mix. After incubation for 30 minutes at room temperature, the reaction is stopped by the addition of stop solution containing EDTA and biotinylated phosphatidylinositol-3,4,5-trisphosphate. Finally, detection buffer is added, which contains europium-labelled anti-GST monoclonal antibody, GST-tagged GRP1 PH domain and streptavidin-allophycocyanin. The plate is then read in timeresolved fluorescence mode and the homogenous time-resolved fluorescence (HTRF) signal is determined according to the formula HTRF=10000×(Em665 nm/Em620 nm).
The kinase assays described herein were performed at Millipore UK Ltd, Dundee Technology Park, Dundee DD2 1SW, UK.

CLint scaled at 5 μM ([1]; liver microsomes, in vivo CLint extrapolated from rat liver microsome incubation): 31 mL/min/kg
half-life at 5 μM ([1]; rat liver microsomes 0.5 mg protein/mL, compound 5 μM, NADPH, 37° C., read-out: Rat T1/2): 80.2 min
IC50 [2]: 300 nM
clearance ([3]; iv dosing 1 mg/kg): 25 mL/min/kg
AUC(0-t) ([3]; rat, plasma, iv dosing 1 mg/kg): 671 ng·h/mL
half-life ([3]; rat, plasma, iv dosing 1 mg/kg): 54.6 min
Vd ([3]; rat, plasma, iv dosing 1 mg/kg, read-out: Vss): 1.68 L/kg
bioavailability ([3]; rat, plasma, oral bioavailability): 56.8%
IC50 [4]: 70.3 nM
IC50 [5]: 318 nM
CLint scaled at 5 μM ([6]; liver microsomes, in vivo CLint extrapolated from human liver microsome incubation): 36.9 mL/min/kg
half-life at 5 μM ([6]; human liver microsomes 0.5 mg protein/mL, compound 5 μM, NADPH, 37° C., read-out: Human T1/2): 47.1 min
IC50 [7]: 310 nM
IC50 [8]: 4 nM
SMILES: Cc1noc(-c2c(N)ncnc2N[C@@H](C)c2nc3cccc(C#CCO)c3c(=O)n2-c2ccccc2)n1 [Example 34, (S)-2-(1-((6-amino-5-(3-methyl-1,2,4-oxadiazol-5-yl)pyrimidin-4-yl)amino)ethyl)-5-(3-hydroxyprop-1-yn-1-yl)-3-phenylquinazolin-4(3H)-one]
